Source: ChEMBL document CHEMBL1201862, “PubChem BioAssay data set” (2004)
The source made the active and inactive calls.

Experiments:
[1] = target: Protein Wnt-3a (Mus musculus, UniProt P27467); test: Wnt3a-driven reporter signaling inhibition, dose response, selectivity assay for Gli-SUFU antagonist project, Wnt-LIGHT cells, luminescence (AID 651570); assay type: functional; conditions: read-out: IC50_Mean;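 further: Wnt-LIGHT reporter cells stimulated with conditioned medium from Wnt3a-producing cells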
Protein Wnt-3a, sequence (P27467 whole entry): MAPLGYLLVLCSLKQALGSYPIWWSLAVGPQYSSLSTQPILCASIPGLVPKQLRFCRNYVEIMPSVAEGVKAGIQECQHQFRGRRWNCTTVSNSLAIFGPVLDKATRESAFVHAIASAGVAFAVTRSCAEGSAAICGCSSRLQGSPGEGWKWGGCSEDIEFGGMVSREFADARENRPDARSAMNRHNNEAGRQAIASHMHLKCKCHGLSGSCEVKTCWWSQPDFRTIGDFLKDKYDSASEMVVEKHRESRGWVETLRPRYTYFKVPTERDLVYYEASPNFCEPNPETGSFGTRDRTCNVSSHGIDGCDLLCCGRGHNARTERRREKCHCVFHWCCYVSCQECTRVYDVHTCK

[2] = target: T1, Mannose-6-phosphate isomerase (Homo sapiens, UniProt P34949); test: PMI enzyme inhibitors, confirmation, biochemical, fluorescence intensity (AID 1535)
T1 sequence (P34949 whole entry): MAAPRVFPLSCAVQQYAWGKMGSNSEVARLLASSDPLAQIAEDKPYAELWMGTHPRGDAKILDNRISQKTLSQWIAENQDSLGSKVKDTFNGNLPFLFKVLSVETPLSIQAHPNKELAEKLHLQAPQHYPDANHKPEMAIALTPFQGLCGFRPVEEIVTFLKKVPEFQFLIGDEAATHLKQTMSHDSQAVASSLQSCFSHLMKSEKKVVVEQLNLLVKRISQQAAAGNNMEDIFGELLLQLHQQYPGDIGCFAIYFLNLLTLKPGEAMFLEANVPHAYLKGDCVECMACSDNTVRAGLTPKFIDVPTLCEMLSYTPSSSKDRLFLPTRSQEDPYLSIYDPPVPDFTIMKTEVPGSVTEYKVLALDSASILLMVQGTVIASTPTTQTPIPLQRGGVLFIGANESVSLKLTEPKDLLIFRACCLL

[3] = target: T2, Phosphomannomutase 2 (Homo sapiens, UniProt O15305); test: Counter screen SAR assay for PMM2 inhibitors via a fluorescence intensity assay. [Related pubchem assays (depositor defined):AID1545, AID1574]
T2 sequence (O15305 whole entry): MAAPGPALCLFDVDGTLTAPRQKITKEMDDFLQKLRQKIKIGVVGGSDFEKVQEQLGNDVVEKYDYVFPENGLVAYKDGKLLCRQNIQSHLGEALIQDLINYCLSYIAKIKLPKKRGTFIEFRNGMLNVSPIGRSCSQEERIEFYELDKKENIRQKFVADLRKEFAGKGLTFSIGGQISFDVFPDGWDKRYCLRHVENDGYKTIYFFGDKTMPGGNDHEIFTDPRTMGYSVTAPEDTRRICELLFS

[4] = target: T3, Alkaline phosphatase, tissue-nonspecific isozyme (Homo sapiens, UniProt P05186); test: human TNAP enzyme inhibitors, SAR follow-up, biochemical, luminescent, dose response (AID 1056)
T3 sequence (P05186 whole entry): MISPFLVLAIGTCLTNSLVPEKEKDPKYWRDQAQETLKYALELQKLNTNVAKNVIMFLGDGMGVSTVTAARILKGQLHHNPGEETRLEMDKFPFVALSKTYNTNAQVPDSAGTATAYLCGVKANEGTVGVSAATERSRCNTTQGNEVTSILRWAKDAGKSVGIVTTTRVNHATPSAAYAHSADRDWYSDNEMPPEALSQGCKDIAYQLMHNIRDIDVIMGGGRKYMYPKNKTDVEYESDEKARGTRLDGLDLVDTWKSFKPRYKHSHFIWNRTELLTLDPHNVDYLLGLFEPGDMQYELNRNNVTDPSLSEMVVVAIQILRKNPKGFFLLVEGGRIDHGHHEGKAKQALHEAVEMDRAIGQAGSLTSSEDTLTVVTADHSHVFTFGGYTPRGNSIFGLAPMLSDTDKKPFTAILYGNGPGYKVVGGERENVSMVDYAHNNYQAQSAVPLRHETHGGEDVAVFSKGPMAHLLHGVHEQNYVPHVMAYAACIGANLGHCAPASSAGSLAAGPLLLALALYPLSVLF

[5] = target: Glyceraldehyde-3-phosphate dehydrogenase (Homo sapiens, UniProt P04406)
[6] = target: T4, Cytochrome P450 3A4 (Homo sapiens, UniProt P08684);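 further: CYP3A4 tested as one member of a cytochrome P450 panel screen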
T4 sequence (P08684 whole entry): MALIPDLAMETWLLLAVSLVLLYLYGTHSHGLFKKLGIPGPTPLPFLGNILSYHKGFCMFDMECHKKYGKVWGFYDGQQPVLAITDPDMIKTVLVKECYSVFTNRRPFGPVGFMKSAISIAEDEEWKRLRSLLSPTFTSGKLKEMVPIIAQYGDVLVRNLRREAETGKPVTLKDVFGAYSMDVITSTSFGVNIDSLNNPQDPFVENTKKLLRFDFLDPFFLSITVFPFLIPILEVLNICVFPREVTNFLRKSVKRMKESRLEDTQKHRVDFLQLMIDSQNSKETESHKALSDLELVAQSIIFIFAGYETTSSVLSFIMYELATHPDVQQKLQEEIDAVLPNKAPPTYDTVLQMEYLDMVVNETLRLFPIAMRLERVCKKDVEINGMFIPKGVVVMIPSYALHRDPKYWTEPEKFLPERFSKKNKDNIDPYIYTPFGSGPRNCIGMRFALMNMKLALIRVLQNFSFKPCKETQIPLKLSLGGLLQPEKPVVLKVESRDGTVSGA

[7] = target: T4, Cytochrome P450 3A4; remark: listed apart in the source
[8] = system: Streptococcus sp. 'group A'; test: growth inhibition of control SK(-) GAS strain, dose response, counter-screen for streptokinase expression inhibitor project, luminescence, kanamycin, BacTiterGlo, confirmation (AID 1900); assay type: functional, organism-based
[9] = target: T5, Streptokinase A (Streptococcus pyogenes serotype M1, UniProt P10520); test: S. pyogenes streptokinase expression inhibitors, potency, dose response, plasminogen activation absorbance, OD405 (AID 1914); assay type: functional, Streptococcus pyogenes M1 GAS;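 further: secreted streptokinase activity via plasminogen activation per viability signal from cell pellet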
T5 sequence (P10520 whole entry): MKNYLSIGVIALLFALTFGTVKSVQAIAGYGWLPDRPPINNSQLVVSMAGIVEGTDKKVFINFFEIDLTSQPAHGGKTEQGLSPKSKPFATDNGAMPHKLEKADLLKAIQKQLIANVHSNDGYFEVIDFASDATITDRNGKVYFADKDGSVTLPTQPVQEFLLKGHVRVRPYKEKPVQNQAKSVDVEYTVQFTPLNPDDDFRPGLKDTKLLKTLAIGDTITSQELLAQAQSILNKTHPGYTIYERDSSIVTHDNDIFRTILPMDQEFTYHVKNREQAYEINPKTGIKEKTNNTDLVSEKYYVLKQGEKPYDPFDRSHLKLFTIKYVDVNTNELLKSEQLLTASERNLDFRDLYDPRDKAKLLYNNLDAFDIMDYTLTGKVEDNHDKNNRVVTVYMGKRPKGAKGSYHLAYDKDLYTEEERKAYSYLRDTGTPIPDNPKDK

[10] = system: Streptococcus; test: Group A Streptococcus viability loss, dose response, counter-screen for streptokinase expression inhibitor project, luminescence, BacTiterGlo (AID 1915); assay type: functional, organism-based;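 further: potency for reduction of bacterial viability or growth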
[11] = target: Cytochrome P450 2D6 (Homo sapiens, UniProt P10635);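 further: CYP2D6 member of a cytochrome P450 panel assay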
[12] = HEp-2 cell cytotoxicity, dose response, cytotoxicity control for RSV inhibitor project, HTS (AID 2410); assay type: functional; conditions: human respiratory syncytial virus
[13] = target: Voltage-dependent T-type calcium channel subunit alpha-1H (Homo sapiens, UniProt O95180); assay type: functional;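 further: channel activity triggered by adding a high calcium stimulation buffer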
[14] = system: INS1; test: beta cell apoptosis inhibitors, cytokine rescue, dose response, luminescence, retest (AID 449756); assay type: functional, cell-based; conditions: Rattus norvegicus;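 further: cell death triggered by IL-1 beta plus TNF-alpha plus IFN-gamma mixture; protective hits raise ATP signal compared with cytokine alone wells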
[15] = target: T6, Protein skinhead-1 (Caenorhabditis elegans, UniProt P34707); assay type: functional
T6 sequence (P34707 whole entry): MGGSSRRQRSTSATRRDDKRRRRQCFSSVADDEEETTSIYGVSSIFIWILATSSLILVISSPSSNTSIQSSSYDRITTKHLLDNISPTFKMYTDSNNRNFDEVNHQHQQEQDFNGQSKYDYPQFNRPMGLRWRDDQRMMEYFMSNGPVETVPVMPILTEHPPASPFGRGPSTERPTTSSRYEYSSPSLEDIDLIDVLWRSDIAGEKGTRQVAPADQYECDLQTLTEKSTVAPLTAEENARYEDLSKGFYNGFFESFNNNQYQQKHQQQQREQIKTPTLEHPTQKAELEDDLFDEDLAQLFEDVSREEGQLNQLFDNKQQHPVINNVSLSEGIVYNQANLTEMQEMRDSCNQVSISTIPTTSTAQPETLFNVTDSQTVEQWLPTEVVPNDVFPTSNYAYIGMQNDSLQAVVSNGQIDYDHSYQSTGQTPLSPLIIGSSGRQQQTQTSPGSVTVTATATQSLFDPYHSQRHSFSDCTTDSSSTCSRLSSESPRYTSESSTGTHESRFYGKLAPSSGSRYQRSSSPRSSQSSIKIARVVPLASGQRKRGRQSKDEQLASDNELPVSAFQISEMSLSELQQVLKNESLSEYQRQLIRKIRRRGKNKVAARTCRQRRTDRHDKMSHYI

[16] = target: Peroxisome proliferator-activated receptor gamma/Nuclear receptor coactivator 1 (Homo sapiens, UniProt P37231); test: (§1) TR-FRET dose response biochemical High Throughput Screening assay for agonists of the steroid receptor coactivator 1 (SRC-1) recruitment by the peroxisome proliferator-activated receptor gamma (PPAR gamma): non-selective agonists. [Related pubchem assays (depositor defined):AID1300, AID1808, AID504735, AID631]; assay type: protein assay
[17] = target: Peroxisome proliferator-activated receptor gamma/Nuclear receptor coactivator 3 (Homo sapiens, UniProt P37231); test: as §1, with “3 (SRC-3)” for “1 (SRC-1)”, “assays: 1301 (Confirmation screen.), 1048 (Primary screen.)]” for “assays (depositor defined):AID1300, AID1808, AID504735, AID631]”; assay type: functional
Peroxisome proliferator-activated receptor gamma/Nuclear receptor coactivator 3, sequence (P37231 whole entry): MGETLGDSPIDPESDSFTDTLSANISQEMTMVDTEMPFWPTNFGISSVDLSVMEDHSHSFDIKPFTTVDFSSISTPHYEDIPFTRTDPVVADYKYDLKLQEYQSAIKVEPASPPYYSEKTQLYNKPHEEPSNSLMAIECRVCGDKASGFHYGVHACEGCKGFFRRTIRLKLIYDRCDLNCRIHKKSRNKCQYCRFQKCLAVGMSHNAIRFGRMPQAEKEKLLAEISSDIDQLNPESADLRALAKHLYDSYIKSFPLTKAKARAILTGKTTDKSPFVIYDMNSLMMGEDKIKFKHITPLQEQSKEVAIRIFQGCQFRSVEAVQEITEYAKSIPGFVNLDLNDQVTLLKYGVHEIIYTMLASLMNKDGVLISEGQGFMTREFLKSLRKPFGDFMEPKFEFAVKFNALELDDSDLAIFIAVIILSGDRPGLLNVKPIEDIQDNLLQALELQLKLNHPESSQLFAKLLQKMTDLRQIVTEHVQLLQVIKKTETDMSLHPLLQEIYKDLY
Peroxisome proliferator-activated receptor gamma/Nuclear receptor coactivator 3, sequence (Q9Y6Q9 whole entry, further chain): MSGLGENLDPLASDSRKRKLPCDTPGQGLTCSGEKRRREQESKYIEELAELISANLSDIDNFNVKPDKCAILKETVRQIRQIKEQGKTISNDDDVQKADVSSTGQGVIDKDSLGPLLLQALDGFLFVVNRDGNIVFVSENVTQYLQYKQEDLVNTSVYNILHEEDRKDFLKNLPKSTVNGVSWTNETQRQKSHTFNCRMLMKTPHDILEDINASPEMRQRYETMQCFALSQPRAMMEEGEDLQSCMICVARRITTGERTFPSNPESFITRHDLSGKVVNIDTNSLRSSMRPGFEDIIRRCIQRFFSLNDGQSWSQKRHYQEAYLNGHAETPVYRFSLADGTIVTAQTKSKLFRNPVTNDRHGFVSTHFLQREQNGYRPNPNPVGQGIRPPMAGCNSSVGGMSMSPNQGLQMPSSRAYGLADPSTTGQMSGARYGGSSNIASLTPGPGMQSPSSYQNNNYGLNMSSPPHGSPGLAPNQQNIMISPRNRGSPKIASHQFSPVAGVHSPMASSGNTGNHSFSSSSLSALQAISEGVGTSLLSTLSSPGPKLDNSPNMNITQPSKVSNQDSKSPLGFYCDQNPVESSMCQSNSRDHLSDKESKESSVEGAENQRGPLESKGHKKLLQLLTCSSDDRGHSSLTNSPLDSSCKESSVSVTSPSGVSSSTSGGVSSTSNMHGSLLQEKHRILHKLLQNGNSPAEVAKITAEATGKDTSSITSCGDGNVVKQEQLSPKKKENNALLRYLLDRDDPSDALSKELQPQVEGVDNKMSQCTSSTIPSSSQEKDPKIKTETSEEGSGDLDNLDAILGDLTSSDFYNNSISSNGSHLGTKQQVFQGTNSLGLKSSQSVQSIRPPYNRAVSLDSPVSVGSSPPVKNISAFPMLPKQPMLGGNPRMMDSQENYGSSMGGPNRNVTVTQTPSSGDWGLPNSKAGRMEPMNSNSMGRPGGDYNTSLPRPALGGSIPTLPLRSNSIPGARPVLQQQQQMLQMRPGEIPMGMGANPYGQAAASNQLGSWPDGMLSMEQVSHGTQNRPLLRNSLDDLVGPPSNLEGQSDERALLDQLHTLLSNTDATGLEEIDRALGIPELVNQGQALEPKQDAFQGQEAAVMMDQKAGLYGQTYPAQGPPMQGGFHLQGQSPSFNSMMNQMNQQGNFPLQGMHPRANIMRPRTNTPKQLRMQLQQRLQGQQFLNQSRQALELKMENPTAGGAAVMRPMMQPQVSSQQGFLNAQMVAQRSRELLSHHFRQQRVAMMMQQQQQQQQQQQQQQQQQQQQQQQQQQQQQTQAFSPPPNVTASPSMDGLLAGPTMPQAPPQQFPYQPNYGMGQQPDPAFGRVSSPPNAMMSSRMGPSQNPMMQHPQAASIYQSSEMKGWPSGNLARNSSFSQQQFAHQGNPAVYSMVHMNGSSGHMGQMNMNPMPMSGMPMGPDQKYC

[18] = target: Peroxisome proliferator-activated receptor gamma/Nuclear receptor coactivator 2 (Homo sapiens, UniProt P37231); test: TR-FRET dose response biochemical High Throughput Screening assay for agonists of the steroid receptor coactivator 2 (SRC-2) recruitment by the peroxisome proliferator-activated receptor gamma (PPAR gamma): non-selective agonists. [Related pubchem assays: 1297, 1032 ]; assay type: functional
Peroxisome proliferator-activated receptor gamma/Nuclear receptor coactivator 2, sequence (P37231 whole entry): as the sequence (P37231 whole entry) above
Peroxisome proliferator-activated receptor gamma/Nuclear receptor coactivator 2, sequence (Q15596 whole entry, further chain): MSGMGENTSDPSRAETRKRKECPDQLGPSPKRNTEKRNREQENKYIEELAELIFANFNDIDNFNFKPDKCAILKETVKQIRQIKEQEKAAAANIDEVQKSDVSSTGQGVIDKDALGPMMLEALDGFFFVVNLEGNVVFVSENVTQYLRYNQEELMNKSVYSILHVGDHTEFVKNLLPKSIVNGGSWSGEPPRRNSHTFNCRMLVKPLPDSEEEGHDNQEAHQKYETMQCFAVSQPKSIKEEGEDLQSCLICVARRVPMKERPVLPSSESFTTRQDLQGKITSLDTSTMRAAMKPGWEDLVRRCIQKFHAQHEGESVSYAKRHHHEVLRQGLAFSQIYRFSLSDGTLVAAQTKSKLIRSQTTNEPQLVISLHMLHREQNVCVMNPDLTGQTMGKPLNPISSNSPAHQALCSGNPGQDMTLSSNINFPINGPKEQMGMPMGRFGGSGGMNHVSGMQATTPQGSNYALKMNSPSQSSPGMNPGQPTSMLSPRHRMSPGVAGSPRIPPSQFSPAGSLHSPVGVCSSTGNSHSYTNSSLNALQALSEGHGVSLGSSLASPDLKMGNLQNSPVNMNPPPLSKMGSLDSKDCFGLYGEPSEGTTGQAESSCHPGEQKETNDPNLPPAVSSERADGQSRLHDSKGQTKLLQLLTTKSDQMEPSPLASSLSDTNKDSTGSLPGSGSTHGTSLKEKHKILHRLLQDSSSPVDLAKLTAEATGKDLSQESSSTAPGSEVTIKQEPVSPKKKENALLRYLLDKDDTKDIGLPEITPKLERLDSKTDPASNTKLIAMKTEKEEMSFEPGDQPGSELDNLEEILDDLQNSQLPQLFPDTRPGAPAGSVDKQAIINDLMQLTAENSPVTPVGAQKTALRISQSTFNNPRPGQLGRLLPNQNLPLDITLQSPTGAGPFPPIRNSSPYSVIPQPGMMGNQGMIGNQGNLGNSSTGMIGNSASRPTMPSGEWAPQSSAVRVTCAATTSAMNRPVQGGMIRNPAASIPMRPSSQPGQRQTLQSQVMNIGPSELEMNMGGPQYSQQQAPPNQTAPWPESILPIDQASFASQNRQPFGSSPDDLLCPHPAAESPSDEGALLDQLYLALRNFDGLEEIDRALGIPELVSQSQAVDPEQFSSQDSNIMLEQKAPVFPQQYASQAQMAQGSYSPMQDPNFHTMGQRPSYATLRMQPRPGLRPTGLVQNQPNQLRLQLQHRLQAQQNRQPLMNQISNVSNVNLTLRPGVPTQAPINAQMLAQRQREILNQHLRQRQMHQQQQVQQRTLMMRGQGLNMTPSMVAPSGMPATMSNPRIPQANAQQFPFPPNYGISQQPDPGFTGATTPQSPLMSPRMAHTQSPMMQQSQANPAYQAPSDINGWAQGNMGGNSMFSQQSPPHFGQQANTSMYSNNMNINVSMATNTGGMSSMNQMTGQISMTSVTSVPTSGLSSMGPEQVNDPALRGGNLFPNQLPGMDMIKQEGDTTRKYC

[19] = target: Cytochrome P450 2C9 (Homo sapiens, UniProt P11712)
[20] = target: Cytochrome P450 2C19 (Homo sapiens, UniProt P33261); test: Cytochrome panel assay with activity outcomes. Panel member name: p450-cyp2c19 Compounds with AC50 equal or less than 10 uM are considered active; assay type: functional
[21] = target: T7, Cytochrome P450 1A2 (Homo sapiens, UniProt P05177);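 further: PubChem cytochrome P450 panel assay, CYP1A2 panel member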
T7 sequence (P05177 whole entry): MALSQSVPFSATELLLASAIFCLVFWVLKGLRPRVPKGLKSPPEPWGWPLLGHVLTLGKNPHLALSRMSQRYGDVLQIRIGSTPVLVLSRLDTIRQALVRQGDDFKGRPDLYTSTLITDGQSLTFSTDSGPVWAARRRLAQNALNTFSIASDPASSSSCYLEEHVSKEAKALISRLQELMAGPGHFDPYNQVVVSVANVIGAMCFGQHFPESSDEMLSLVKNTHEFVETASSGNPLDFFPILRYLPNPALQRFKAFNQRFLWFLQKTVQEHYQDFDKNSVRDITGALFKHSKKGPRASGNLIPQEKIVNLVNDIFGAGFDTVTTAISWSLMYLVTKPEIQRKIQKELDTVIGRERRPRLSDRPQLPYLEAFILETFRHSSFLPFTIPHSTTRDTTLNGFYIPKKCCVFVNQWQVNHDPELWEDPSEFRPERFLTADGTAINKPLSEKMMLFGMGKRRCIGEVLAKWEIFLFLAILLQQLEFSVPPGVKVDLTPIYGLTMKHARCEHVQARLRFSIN

[22] = system: BJ; test: cytotoxicity toward BJ-TERT fibroblasts, dose response, cell-based, RAS-independent, luminescence (AID 1933); assay type: functional; conditions: Homo sapiens
[23] = system: BJ; test: cells; assay type: functional, cell-based; conditions: Homo sapiens
[24] = system: BJ; test: cytotoxicity toward BJ-TERT-LT-ST fibroblasts, dose response, cell-based, RAS-independent, luminescence (AID 1935); assay type: functional; conditions: Homo sapiens;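 further: BJ fibroblasts immortalized with TERT plus LT and ST oncogenes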
[25] = cytotoxicity toward DRD oncogenic fibroblasts, dose response, cell-based, non-viral oncogenic, luminescence (AID 1934); assay type: functional; conditions: Homo sapiens
[26] = system: BJ; test: cytotoxicity toward Ras-transformed BJeLR fibroblasts, dose response, cell-based, alamar blue fluorescence, cherrypicked samples (AID 2631); assay type: functional; conditions: Homo sapiens;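 further: confirmatory dose-response assay in RAS-dependent BJ fibroblasts engineered with TERT, LT and ST, with cytotoxicity read by fluorescence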

CCOC(=O)N1CCN(C(=O)c2ccc(CSc3ccc(Cl)cc3)cc2)CC1
IC50 [1]: 15.6 µM (active)

Cc1nnc(/N=c2\ssnc2Cl)o1
IC50 [2]: 1.07 µM (active) | IC50 [3]: > 100 µM (inactive)

CC(C)C[C@H]1CN=C(N(C)C)N1CCCCc1ccccc1
IC50 [1]: 11.7 µM (active)

O=C(Cn1cnnc1)c1ccc(O)c(O)c1
IC50 [4]: > 100 µM (inactive)

COc1cccc(-c2cc(C(=O)O)[nH]n2)c1
IC50 [5]: > 100 µM (not active) | IC50 [4]: > 100 µM (inactive)

CCS(=O)(=O)N(C)[C@@H]1c2cc(C#N)ccc2OC(C)(C)[C@H]1O
AC50 [6]: 15.8 µM (inconclusive) | AC50 [7]: 15.8 µM (inconclusive)

O=C(N[C@@H]1C/C=C\C[C@@H](CC(=O)N(CCO)Cc2ccccc2)C(=O)NCCOC1=O)OCC1c2ccccc2-c2ccccc21
IC50 [1]: 24.2 µM (inactive)

O=C(c1cnc(-c2ccccc2)s1)c1ccc(Cl)cc1Cl
EC50 [8]: 16.2 µM (active) | EC50 [9]: 33.7 µM (active) | EC50 [10]: > 150 µM (not active) | AC50 [11]: 22.4 µM (inconclusive) | AC50 [7]: inconclusive

CC1Cc2ccccc2N1C(=O)CSc1nc2ccccc2o1 (stereo not given)
CC50 [12]: 26.9 µM (active) | EC50 [13]: 9.56 µM (active) | AC50 [14]: > 260 µM (inactive) | IC50 [15]: > 100 µM (inactive)

COc1ccc(NC(=O)CSc2c3c(nc4ccccc24)CCCC3)c(OC)c1
EC50 [16]: > 79.4 µM (inactive) | EC50 [17]: > 79.4 µM (not active) | EC50 [18]: 35.4 µM (not active)

COc1cc(N=c2ssnc2Cl)cc(OC)c1
IC50 [2]: 17.2 µM (active) | IC50 [3]: > 100 µM (inactive)

O=C(Nc1ccccc1)N1CCC2(CC1)CCN(C(=O)Oc1ccccc1)CC2
AC50 [7]: inconclusive

CC(C)(C)c1ccc(-c2c(C#N)c(N)nc3c2CCCC3)s1
AC50 [19]: 7.08 µM (inconclusive) | AC50 [7]: inconclusive

CC(=O)c1sc(NC(=O)C(C)C)nc1C
EC50 [16]: > 79.4 µM (inactive) | EC50 [17]: > 79.4 µM (not active) | EC50 [18]: > 26.5 µM (not active) | AC50 [20]: inconclusive | AC50 [19]: 39.8 µM (inconclusive)

CN1CCN(c2ncc3nc(-c4ccc(Cl)cc4)c(=O)n(Cc4ccc(F)cc4)c3n2)CC1
AC50 [11]: 39.8 µM (inconclusive) | AC50 [21]: 31.6 µM (inconclusive) | AC50 [7]: inconclusive

COc1cc(OC)c(C2=NOC(C(=O)NCc3cccs3)C2)cc1Cl (stereo not given)
EC50 [22]: > 150 µM (not active) | EC50 [23]: 63.7 µM (active) | EC50 [24]: 32 µM (active) | EC50 [25]: 17.7 µM (inconclusive) | EC50 [26]: 108 µM (active)

CC(=O)Nc1ccc(/C=N/Nc2nc3ccccc3[nH]2)cc1
EC50 [22]: > 150 µM (not active) | EC50 [23]: 5.82 µM (active) | EC50 [24]: > 150 µM (inconclusive) | EC50 [25]: > 150 µM (inconclusive) | EC50 [26]: > 133 µM (inactive)

NC(=O)c1cn(S(=O)(=O)c2ccc3ccccc3c2)c2ccccc12
IC50 [5]: > 100 µM (not active) | IC50 [4]: > 100 µM (inactive)

COC(=O)c1c(C)[nH]c(C(=O)C(C)Sc2nnc(-c3cc(OC)c(OC)c(OC)c3)o2)c1C (stereo not given)
EC50 [16]: > 79.4 µM (inactive) | EC50 [17]: > 79.4 µM (not active) | EC50 [18]: > 79.4 µM (not active)
